≈ marks a conversion by molar mass, not a printed value.
What was measured:
[1] = test system: human serum; assay: Human serum binding (ultrafiltration, HPLC); assay type: in vitro ADME
Method: The following procedure may be used to evaluate serum binding: compounds are incubated in serum for 10 min at 37° C. in a shaking water bath. Then a serum ultrafiltrate is obtained by centrifugation of ultra-filtration units (Amicon Centrifree) for, say, 20 minutes at 25° C. Compound content in the ultrafiltrate is quantified by HPLC using standards prepared in blank ultra-filtrate undergoing similar processing.
(§1) It is expected that the compounds will be equally, if not more, potent against other resistant strains of bacteria as well as bacteria which are susceptible to current clinical antibiotics. The range of utility of the compounds herein can easily be established by those skilled in the art using the disclosures herein and all bacteria within the useful range are within the scope of this invention.

[2] = test system: MRSA 76; assay: In vitro MIC by agar dilution against MRSA 76; assay type: cell-based; details: Staphylococcus aureus; MRSA 76 isolate; read-out: MIC (μg/mL) MRSA 76
Description: (§2) The in vitro MIC for bacterial isolates may be obtained in the following manner: a test compound is incorporated into a series of two-fold dilutions in liquified Mueller-hinton agar. Upon solidification, a number of different bacterial strains are spot-inoculated onto the surface of the agar. […] The procedures used in these experiments are generally those standardized by the National Committee for Clinical Laboratory Standards (NCCLS), as set forth in the NCCLS publication entitled “Methods for Dilution Antimicrobial Susceptibility Tests (1991), which is incorporated by reference as if fully set forth herein. The following exemplified such a procedure although it is to be understood that modifications of the procedure may be implemented as required.
(§3) Aliquots of the test compounds are prepared in phosphate buffered saline (PBS) at pH approximately 7.2. Tween 20 or dimethylsulfoxide (DMSO) are added if necessary to solubilize the compound and vortexing, sonicating and gentle heating may also be employed. Typically, the concentration of the stock solution is 10× that of the highest compound concentration to be used. Serial two-fold dilutions are prepared down to the lowest concentration to be tested. Each compound concentration is tested in duplicate. A control plate using a reference drug such as cefotaxime, vancomycin or imipenem is used as a postive control. A negative control plate containing no drug or compound is also prepared.
(§4) A few isolated colonies are retrieved from a pure culture prepared on agar plates and transferred to a tube of nutrient broth and allowed to grow at 35–36° C. until log-phase growth is achieved, usually about 4–6 hours. The broth is then added dropwise to PBS until the turbidity of the suspension matches a 0.5 McFarland standard which is equal to approximately 10^8 cfu/ml.
(§5) The test plates containing the compound dilutions and the control plates are then inoculated with the PBS suspension. The plates are then incubated for 16–20 hours at 35–36° C. The plates are then observed to determine which concentration of the test compound is the MIC.
as §1

[3] = test system: MRSA COL; assay: In vitro MIC by agar dilution against MRSA COL; assay type: cell-based; details: Staphylococcus aureus; MRSA COL isolate; read-out: MIC (μg/mL) MRSA COL
Description: as §2, §3, §4, §5, §1

[4] = test system: serum protein; details: background prior-art compounds; cited from earlier work
[5] = test system: MRSA; details: MRSA potency, background prior-art compounds; cited from earlier work

Human Serum Binding [1]	MIC [2]	MIC [3]	Compound	serum binding [4]	MIC [5]
66.9%	2 µg/mL (≈ 3.98 µM)	2 µg/mL (≈ 3.98 µM)	Nc1nc(/C(=N/O)C(=O)NC2C(=O)N3C(C(=O)O)=C(Sc4nncs4)CCC23)c(Cl)s1 (stereo not drawn)		
68.0%	2 µg/mL (≈ 3.87 µM)	1 µg/mL (≈ 1.93 µM)	Nc1nnc(SC2=C(C(=O)O)N3C(=O)C(NC(=O)/C(=N\O)c4nc(N)sc4Cl)C3CC2)s1 (stereo not drawn)		
89.4%	2 µg/mL (≈ 3.42 µM)	1 µg/mL (≈ 1.71 µM)	NCCSCc1ncccc1SC1=C(C(=O)O)N2C(=O)C(NC(=O)/C(=N\O)c3nc(N)sc3Cl)C2CC1 (stereo not drawn)		

The next lines start with the molecule.

Compound	Human Serum Binding [1]	MIC [2]	MIC [3]	serum binding [4]	MIC [5]
NCCSCc1cnccc1SC1=C(C(=O)O)N2C(=O)C(NC(=O)/C(=N\O)c3nc(N)sc3Cl)C2CC1 (stereo not drawn)	74.5%	1 µg/mL (≈ 1.71 µM)	1 µg/mL (≈ 1.71 µM)		
Nc1nc(/C(=N/OCCF)C(=O)N[C@@H]2C(=O)N3C(C(=O)O)=C(Sc4nncs4)CCC23)cs1 (stereo partly drawn) [compound (2)]				> 99.2%	2 µg/mL (≈ 3.89 µM)
Nc1nc(/C(=N/OCCF)C(=O)N[C@@H]2C(=O)N3C(C(=O)O)=C(Sc4nc5ccc([N+](=O)[O-])cc5s4)CCC23)cs1 (stereo partly drawn) [compound (3)]				99.6%	4 µg/mL (≈ 6.58 µM)
Nc1nc(/C(=N/OCCF)C(=O)N[C@@H]2C(=O)N3C(C(=O)O)=C(Sc4nc5cnccc5s4)CCC23)cs1 (stereo partly drawn) [compound (4)]				36%	64 µg/mL (≈ 114 µM)
